Test results from PMC7066176, “Crystal structure of a lipin/Pah phosphatidic acid phosphatase” (Nature Communications, 2020).

Biological target: T1, Tt Pah2 (Tetrahymena thermophila, UniProt I7MFJ3)
T1 construct: gene TTHERM_00215970; residues 1-321 (lacks 14 C-terminal residues of 335), codon-optimised, E. coli; ppSUMO His-SUMO tag cleaved by ULP-1, or pET28 N-terminal His tag kept
T1 sequence (I7MFJ3 1-321): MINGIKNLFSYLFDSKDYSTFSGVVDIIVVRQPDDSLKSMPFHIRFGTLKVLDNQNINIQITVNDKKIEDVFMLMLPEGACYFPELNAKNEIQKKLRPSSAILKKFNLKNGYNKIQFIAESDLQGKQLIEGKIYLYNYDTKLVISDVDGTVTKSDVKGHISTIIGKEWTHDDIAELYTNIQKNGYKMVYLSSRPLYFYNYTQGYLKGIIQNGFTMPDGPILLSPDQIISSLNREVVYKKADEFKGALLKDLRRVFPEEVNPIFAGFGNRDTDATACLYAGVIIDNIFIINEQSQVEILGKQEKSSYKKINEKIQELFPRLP
Assay: liposome sedimentation, SDS-PAGE
Format: binding
Conditions: 20 mol% POPA liposomes with 40 mol% POPE and POPC, pH 7.5, room temperature; preferential over neutral and POPS liposomes

For CCCCCCCC/C=C\CCCCCCCC(=O)O[C@H](COC(=O)CCCCCCCCCCCCCCC)COP(=O)(O)O [POPA], the “liposome sedimentation, SDS-PAGE” value was “Tt Pah2 also preferentially interacted with PA-containing liposomes, in comparison with neutral or anionic PS-enriched”.
